Assay results taken from PMC9630125 (Oncogene, 2022).

Molecular target: Misshapen-like kinase 1 (MINK1) (Homo sapiens, UniProt Q8N4C8)
Assay: ADP-Glo kinase assay with recombinant human MINK1, MBP substrate and ATP
Assay type: biochemical

Sequence of Misshapen-like kinase 1 (MINK1) (Q8N4C8 whole entry): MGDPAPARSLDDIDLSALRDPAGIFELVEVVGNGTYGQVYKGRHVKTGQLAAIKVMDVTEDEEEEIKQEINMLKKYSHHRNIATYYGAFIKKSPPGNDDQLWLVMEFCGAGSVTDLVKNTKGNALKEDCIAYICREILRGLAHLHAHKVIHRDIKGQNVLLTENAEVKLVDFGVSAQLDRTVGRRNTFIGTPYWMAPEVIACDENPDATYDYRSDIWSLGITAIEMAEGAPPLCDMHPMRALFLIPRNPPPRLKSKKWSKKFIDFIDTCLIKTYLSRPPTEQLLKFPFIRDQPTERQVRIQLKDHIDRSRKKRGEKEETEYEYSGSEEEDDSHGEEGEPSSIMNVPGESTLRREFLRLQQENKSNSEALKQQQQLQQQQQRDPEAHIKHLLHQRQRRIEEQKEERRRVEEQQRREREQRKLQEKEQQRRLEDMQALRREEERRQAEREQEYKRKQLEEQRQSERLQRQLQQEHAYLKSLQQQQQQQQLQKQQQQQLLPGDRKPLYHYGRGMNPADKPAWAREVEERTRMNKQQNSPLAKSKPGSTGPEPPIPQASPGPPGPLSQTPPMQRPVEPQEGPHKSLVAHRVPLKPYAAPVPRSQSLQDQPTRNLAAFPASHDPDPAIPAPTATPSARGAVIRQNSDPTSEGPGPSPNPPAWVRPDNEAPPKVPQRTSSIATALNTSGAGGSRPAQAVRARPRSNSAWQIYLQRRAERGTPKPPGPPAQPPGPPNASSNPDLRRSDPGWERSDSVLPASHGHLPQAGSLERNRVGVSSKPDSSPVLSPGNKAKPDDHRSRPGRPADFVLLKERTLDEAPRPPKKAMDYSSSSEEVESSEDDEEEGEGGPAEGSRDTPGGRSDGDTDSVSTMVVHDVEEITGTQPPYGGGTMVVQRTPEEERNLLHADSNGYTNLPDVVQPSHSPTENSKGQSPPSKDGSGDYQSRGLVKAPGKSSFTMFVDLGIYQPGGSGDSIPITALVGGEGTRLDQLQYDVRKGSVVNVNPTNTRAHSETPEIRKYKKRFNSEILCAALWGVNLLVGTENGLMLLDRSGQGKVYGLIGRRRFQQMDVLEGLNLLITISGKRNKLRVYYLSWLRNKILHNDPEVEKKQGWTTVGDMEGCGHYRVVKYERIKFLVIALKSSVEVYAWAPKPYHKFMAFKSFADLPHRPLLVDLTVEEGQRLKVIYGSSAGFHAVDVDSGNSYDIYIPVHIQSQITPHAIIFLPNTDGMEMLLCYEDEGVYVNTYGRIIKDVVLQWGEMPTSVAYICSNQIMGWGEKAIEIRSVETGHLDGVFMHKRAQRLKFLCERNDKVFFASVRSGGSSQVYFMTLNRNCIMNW

IC50: 10 µM
SMILES: Cc1ccc(-n2nc(C(C)(C)C)cc2NC(=O)NCc2cc(F)ccc2Oc2ccc3c(cnn3CCO)c2)cc1 [pexmetinib]
